Measurements as given in the supplement of paper PMC10627819.

Experiments:
S. aureus Newman = experiment: Bliss interaction score (quartile over a dose matrix) (fitness difference); higher = more antagonism (negative = synergy)
Outline: (§1)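 Growth in each well was taken as OD595 at entry into stationary phase. Dividing by the plate's robust no-drug mean and capping at 1 gave fitness, and single-drug fitness was inferred from the combination data. The Bliss score, observed minus product-expected fitness, is summarised by quartiles over technical, biological and donor/recipient replicates.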

S. pneumoniae D39V [1] = experiment: as above
Outline: as §1

S. aureus DSM 20231 = experiment: as above
Outline: as §1

B. subtilis 168 = experiment: as above
Outline: as §1

S. pneumoniae D39V [2] = experiment: fitness (endpoint OD595 vs no drug) (fraction); higher = more growth
Outline: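 Fitness was defined as the optical density at the transition into stationary phase relative to the robust mean of no-drug control wells. Values were capped at 1. Cultures were started at OD595 0.01 in 384-well plates (30 µl, or 55 µl for S. pneumoniae) in TSB, LB Lennox or CY at 37 °C. OD595 was recorded every 30 min over 14 h, with the first reading subtracted as background.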
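Wherever Bliss interaction score (quartile over a dose matrix) is given: first quartile when negative (synergy) and third quartile when positive (antagonism).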

C[C@H]1COc2c(N3CCN(C)CC3)c(F)cc3c(=O)c(C(=O)O)cn1c23 [Levofloxacin] + Clc1ccc(COC(Cn2ccnc2)c2ccc(Cl)cc2Cl)c(Cl)c1 [Miconazole]
Settings | Bliss interaction score
B. subtilis 168 | 0.0649
S. aureus DSM 20231 | -0.0265
S. aureus Newman | 0.0464
S. pneumoniae D39V [1] | 0.11

S. pneumoniae D39V [2]
Settings | fitness
first compound 0.1725 µg/mL, partner 1.25 µg/mL | 0.955
first compound 0.1725 µg/mL, partner 2.5 µg/mL | 0.976
first compound 0.1725 µg/mL, partner 5 µg/mL | 0.963
first compound 0.2 µg/mL, partner 1.073 µg/mL | ≥ 1
first compound 0.2 µg/mL, partner 2.145 µg/mL | ≥ 1
first compound 0.2 µg/mL, partner 4.29 µg/mL | 0.978
first compound 0.345 µg/mL, partner 1.25 µg/mL | 0.866
first compound 0.345 µg/mL, partner 2.5 µg/mL | 0.856
first compound 0.345 µg/mL, partner 5 µg/mL | 0.859
first compound 0.4 µg/mL, partner 1.073 µg/mL | 0.934
first compound 0.4 µg/mL, partner 2.145 µg/mL | 0.941
first compound 0.4 µg/mL, partner 4.29 µg/mL | 0.825
first compound 0.69 µg/mL, partner 1.25 µg/mL | 0.576
first compound 0.69 µg/mL, partner 2.5 µg/mL | 0.432
first compound 0.69 µg/mL, partner 5 µg/mL | 0.578
first compound 0.8 µg/mL, partner 4.29 µg/mL | 0.769

CCN(CC)CCOC(=O)c1ccc(N)cc1 [Procaine] + CO[C@H]1/C=C/O[C@@]2(C)Oc3c(C)c(O)c4c(O)c(c(/C=N/N5CCN(C)CC5)c(O)c4c3C2=O)NC(=O)/C(C)=C\C=C\[C@H](C)[C@H](O)[C@@H](C)[C@@H](O)[C@@H](C)[C@H](OC(C)=O)[C@@H]1C [Rifampicin]
Settings | Bliss interaction score
B. subtilis 168 | -0.0578
S. aureus DSM 20231 | -0.054
S. aureus Newman | -0.0206
S. pneumoniae D39V [1] | 0.0704

S. pneumoniae D39V [2], partner 0.025 µg/mL, one replicate
Settings | fitness
first compound 85.5 µg/mL | 0.903
first compound 171 µg/mL | 0.875
first compound 342 µg/mL | 0.919

fitness, S. pneumoniae D39V [2]
Settings | first compound 85.5 µg/mL | first compound 171 µg/mL | first compound 342 µg/mL
partner 0.05 µg/mL | 0.927 | 0.909 | 0.984
partner 0.2 µg/mL | 0.102 | 0.0616 | 0.132

CN(C)C(=O)C(CCN1CCC(O)(c2ccc(Cl)cc2)CC1)(c1ccccc1)c1ccccc1 [Loperamide] + Clc1ccc(COC(Cn2ccnc2)c2ccc(Cl)cc2Cl)c(Cl)c1 [Miconazole]
Settings | Bliss interaction score
B. subtilis 168 | -0.136
S. aureus DSM 20231 | 0.0862
S. aureus Newman | -0.158
S. pneumoniae D39V [1] | -0.0772

fitness, S. pneumoniae D39V [2]
Settings | partner 1.073 µg/mL | partner 1.25 µg/mL | partner 2.145 µg/mL | partner 2.5 µg/mL | partner 4.29 µg/mL | partner 5 µg/mL
first compound 17.14 µg/mL | – | 0.963 | – | 0.954 | – | 0.933
first compound 20 µg/mL | ≥ 1 | – | ≥ 1 | – | 0.926 | –
first compound 34.28 µg/mL | – | 0.884 | – | 0.907 | – | 0.925
first compound 40 µg/mL | ≥ 1 | – | 0.955 | – | 0.731 | –

S. pneumoniae D39V [2], first compound 68.57 µg/mL, one replicate
Settings | fitness
partner 1.25 µg/mL | 0.857
partner 2.5 µg/mL | 0.85
partner 5 µg/mL | 0.923

CO/N=C(\C(=O)N[C@@H]1C(=O)N2C(C(=O)[O-])=C(C[N+]3(C)CCCC3)CS[C@H]12)c1csc(N)n1 [Cefepime] + CCC(C)C1C(=O)NC(=C)C(=O)NC(C(=O)NC(CSCC(C(=O)N1)NC(=O)/C(=C/C)/NC(=O)C(C(C)CC)N)C(=O)NC2C(SCC(NC(=O)CNC(=O)C3CCCN3C2=O)C(=O)NC(CCCCN)C(=O)NC4C(SCC(NC(=O)CNC(=O)C(NC(=O)C(NC(=O)C(NC(=O)CNC4=O)C)CC(C)C)CCSC)C(=O)NC(CC(=O)N)C(=O)NC(CCSC)C(=O)NC(CCCCN)C(=O)NC5C(SCC6C(=O)NC(C(=O)NC(CSC(C(C(=O)N6)NC(=O)C(NC5=O)C)C)C(=O)NC(CO)C(=O)NC(C(C)CC)C(=O)NC(CC7=CN=CN7)C(=O)NC(C(C)C)C(=O)NC(=C)C(=O)NC(CCCCN)C(=O)O)CC8=CN=CN8)C)C)C)CC(C)C [Nisin]
main component drawn
Settings | Bliss interaction score
B. subtilis 168 | -0.0465
S. aureus DSM 20231 | -0.0745
S. aureus Newman | -0.0777
S. pneumoniae D39V [1] | -0.0526

S. pneumoniae D39V [2], main component drawn
Settings | fitness
first compound 0.007 µg/mL, partner 1.6 µg/mL | 0.0039
first compound 0.007 µg/mL, partner 3.2 µg/mL | 0.0024
first compound 0.007 µg/mL, partner 6.4 µg/mL | 0.0023
first compound 0.0078 µg/mL, partner 0.4275 µg/mL | 0.996
first compound 0.0078 µg/mL, partner 0.855 µg/mL | ≥ 1
first compound 0.0078 µg/mL, partner 1.71 µg/mL | 0.189
first compound 0.014 µg/mL, partner 1.6 µg/mL | 0.0058
first compound 0.014 µg/mL, partner 3.2 µg/mL | 0.0156
first compound 0.014 µg/mL, partner 6.4 µg/mL | 0.0123
first compound 0.0155 µg/mL, partner 0.4275 µg/mL | 0.996
first compound 0.0155 µg/mL, partner 0.855 µg/mL | 0.974
first compound 0.0155 µg/mL, partner 1.71 µg/mL | 0.126
first compound 0.028 µg/mL, partner 1.6 µg/mL | 0.0484
first compound 0.028 µg/mL, partner 3.2 µg/mL | 0.0251
first compound 0.028 µg/mL, partner 6.4 µg/mL | 0.0152
first compound 0.031 µg/mL, partner 1.71 µg/mL | 0.103

CC1(C)S[C@@H]2[C@H](NC(=O)[C@H](N)c3ccc(O)cc3)C(=O)N2[C@H]1C(=O)O [Amoxicillin] + Clc1ccc(COC(Cn2ccnc2)c2ccc(Cl)cc2Cl)c(Cl)c1 [Miconazole]
Settings | Bliss interaction score
B. subtilis 168 | 0.0957
S. aureus DSM 20231 | 0.0878
S. aureus Newman | 0.0536
S. pneumoniae D39V [1] | -0.0912

fitness, S. pneumoniae D39V [2]
Settings | partner 1.073 µg/mL | partner 1.25 µg/mL | partner 2.145 µg/mL | partner 2.5 µg/mL | partner 4.29 µg/mL | partner 5 µg/mL
first compound 0.0008 µg/mL | ≥ 1 | – | 0.881 | – | 0.882 | –
first compound 0.0015 µg/mL | ≥ 1 | 0.781 | 0.948 | 0.831 | 0.848 | 0.906
first compound 0.003 µg/mL | 0.994 | 0.736 | 0.778 | 0.814 | 0.739 | 0.849

fitness, S. pneumoniae D39V [2], one replicate
Settings | partner 1.25 µg/mL | partner 2.5 µg/mL | partner 5 µg/mL
first compound 0.0008 µg/mL | 0.89 | 0.799 | 0.987
first compound 0.006 µg/mL | 0.355 | 0.264 | 0.395
